{"source": "patent US20050054587A1", "about": "“Novel therapeutic indication of azithromycin for treatment of non-infective inflamatory diseases” (priority 2001, published 2005)", "type_in_all_cases": "in vivo, human", "key": {"[1]": {"tested_on": "myeloperoxidase (MPO)", "test": "MPO enzyme protein by ELISA in neutrophil lysates", "settings": "healthy volunteers, azithromycin 3×500 mg, baseline 54.22 ± 12.61", "protocol": "(§1) A trial on healthy volunteers was conducted and the influence of azithromycin given in a dosage of 3×500 mg on selected inflammation-relevant parameters was followed up.\n(§2) Each subject received two standard 250 mg capsules of azithromycin (Sumamed®, PLIVA Zagreb) on three consecutive days. Immediately before the treatment and 2 h and 30 min, 24 h and 28 days after the third and last dose of azithromycin blood was collected from the cubital vein into EDTA-containing tubes. Aliquots were taken for cell counting, smear preparation, polymorphonuclear cell and serum isolation.\nThe activity of MPO was assessed from the intensity of staining of neutrophils in blood smears and in cell lysates by ELISA. After fixation in ethanol-formaldehyde, smears were incubated in a substrate solution containing hydrogen peroxide and benzidine (SIGMA). After incubation, smears were counterstained with Giemsa solution. MPO value positivity_of 100 granulocytes was evaluated and scored from 0 to 4+ on the basis of the intensity of the precipitated dye in cytoplasm. Therefore, the value of the score could be from 0 to 400. Normal values of score range (290-390) were taken from this study before azithromycin administration. MPO activity was also evaluated on the digital image of smear taken with a digital camera under the high magnification (×1000) of light microscope. MPO activities in blood smear neutrophils decreased from 2 h and 30 min to 24 h after the last azithromycin dose and returned to baseline after 28 days (Table 1). The change in neutrophil enzyme protein followed the same pattern as that in intracellular enzyme activity, decreasing from 2 h and 30 min to 24 h after the last dose of azithromycin and returning to baseline after 28 days. […] Degranulation presented with lower MPO neutrophil density determined_with cytochemistry was associated with lower MPO ELISA concentrations in neutrophil lysates.\nProteins in PMN samples were determined according to the method of Bradford (Anal. Biochem. (1976) 72: 248-254) using bovine serum albumin as a standard."}, "[2]": {"tested_on": "β-glucuronidase", "test": "β-glucuronidase activity in serum, fluorimetric", "settings": "healthy volunteers; for β-glucuronidase (serum): azithromycin 3×500 mg, baseline 2.88 ± 0.7", "protocol": "as §1, §2\nGlycosidases are enzymes that catalyse hydrolysis of glycosidic bonds of oligosacharides and other glycosides. They are specific to the glycosidic part of substrate molecule. N-acetyl-β-D-glucosaminidase (NAGA) and β-glucuronidase are such enzymes. They are lysosomal enzymes, both located in azurophilic (primary; peroxidase-positive) granules of neutrophils. Since degranulation of neutrophils is present during inflammation, many authors choose these enzymes as markers of degranulation and for estimation of neutrophil reactivity. The catalytic concentration of both enzymes in serum and in neutrophil lysates was determined using the fluorimetric method described by O'Brien et al. (New Engl. J. Med. (1970) 283: 15-20) for NAGA and Glaser & Sly (J. Lab. Clin. Med. (1973) 82: 969) for β-glucuronidase."}, "[3]": {"tested_on": "IL-1", "test": "Serum IL-1 concentration, ELISA", "settings": "healthy volunteers, azithromycin 3×500 mg, baseline 0.291 ± 0.11", "protocol": "as §1, §2\n(§3) Cytokine and chemokine concentrations were determined using ELISA kits. […] Rapid and pronounced decreases in the plasma concentrations of the neutrophil-stimulating chemokine, IL-8, and GR0-α were observed 2 h and 30 min and 24 h after the last dose of azithromycin (Table 1. The concentration of IL-8 returned essentially to baseline after 28 days, while that of GRO-[…] was decreased at this time."}, "[4]": {"tested_on": "IL-6", "test": "Serum IL-6 concentration, ELISA", "settings": "healthy volunteers, azithromycin 3×500 mg, baseline 3.4 ± 1.05", "protocol": "as §1, §2, §3"}, "[5]": {"tested_on": "GRO-α", "test": "Serum GRO-α concentration, ELISA", "settings": "healthy volunteers, azithromycin 3×500 mg, baseline 124.1 ± 33.02", "protocol": "as §1, §2, §3"}, "[6]": {"tested_on": "stimulated neutrophils", "test": "fMLP-stimulated neutrophil oxidative burst, luminol chemiluminescence", "settings": "healthy volunteers, azithromycin 3×500 mg, baseline 29335 ± 1957", "protocol": "as §1, §2\nThe generation of reactive oxygen species by activated cells is frequently determined by the measurement of chemiluminescence (CL). The radical species formed react with a photon-producing chemical (e.g. Luminol) and the resulting light emission is measured with a photocell. Chemiluminescence is detectable as a result of the stimulation (e.g. fMLP) of leucocytes and is a measure of their oxidative cytotoxic activity (Allen et al., Biochem. Biophys. Res. Commun. (1972), 47: 679).\nThe results of the study presented in Table 1 show, that azithromycin inhibits chemiluminescence generated from stimulated neutrophils isolated from the blood of humans treated with azithromycin."}, "[7]": {"tested_on": "neutrophils", "test": "fMLP-stimulated neutrophil oxidative burst, cytochrome c assay", "settings": "healthy volunteers, azithromycin 3×500 mg, baseline 0.020 ± 0,014, absorbances 550 nm and 540 nm", "protocol": "as §1, §2\nNeutrophils were incubated with cytochrome c and stimulated with fMLP (Cohen and Chovaniec, 1978, J. Clin. Invest. 61: 1081-1087). Absorbances at 550 nm and 540 nm were recorded and the results were expressed as delta A."}, "[8]": {"tested_on": "glutathione peroxidase (GSHPx)", "test": "Glutathione peroxidase activity in PMN lysates (RANSEL kit)", "settings": "healthy volunteers, azithromycin 3×500 mg, baseline 5.3 ± 2.0", "protocol": "as §1, §2\nCellular glutathione peroxidase (GSHPx) is a tetrameric protein in which each of the four identical subunits contains one atom of selenium (Se) in the form of selenocysteine at the active site (Misso et al., J. Leukoc. Biol. (1998), 63: 124-130). GSHPx plays a role in H202 detoxification and converts lipid hydroperoxides to nontoxic alcohols (Akkus et al., Clin. Chim. Acta (1996), 244: 221-227); Urban et al., Biomed & Pharmacother. (1997), 51: 388-390). In this study, in healthy volunteers treated with azithromycin alterations in the PMN intracellular GSHPx activity were determined using the commercially available kit RANSEL (Randox Laboratories). GSHPx catalyses the oxidation of glutathione by cumene hydroperoxide. In the presence of glutathione reductase and NADPH the oxidised glutathione is immediately converted to the reduced form with a concomitant oxidation of NADPH to NADP^+. The decrease in absorbance at 340 nm is measured."}}}
{"compound": "CC[C@H]1OC(=O)[C@H](C)[C@@H](O[C@H]2C[C@@](C)(OC)[C@@H](O)[C@H](C)O2)[C@H](C)[C@@H](O[C@@H]2O[C@H](C)C[C@H](N(C)C)[C@H]2O)[C@](C)(O)C[C@@H](C)CN(C)[C@H](C)[C@@H](O)[C@]1(C)O", "note": "[azithromycin, 9-deoxo-9-dihydro-9a-methyl-9a-aza-9a-homoerythromycin A]", "values": [{"measurement": "myeloperoxidase (PMN)", "setting": "[1]; 2 h and 30 min after last dose", "value": "70.85 ± 19.91", "unit": "μg/mg protein"}, {"measurement": "myeloperoxidase (PMN)", "setting": "[1]; 24 hours after last dose", "value": "26.74 ± 2.51", "unit": "μg/mg protein"}, {"measurement": "myeloperoxidase (PMN)", "setting": "[1]; 28 days after last dose", "value": "70.01 ± 17.62", "unit": "μg/mg protein"}, {"measurement": "change of activity of β-glucuronidase in serum", "setting": "[2]; 3×500 mg, during the first 24 hours after the last dose", "value": "did not show any changes"}, {"measurement": "β-glucuronidase (serum)", "setting": "[2]; 2 h and 30 min after last dose", "value": "3.01 ± 0.6", "unit": "µmol/L/min"}, {"measurement": "β-glucuronidase (serum)", "setting": "[2]; 24 hours after last dose", "value": "2.95 ± 0.5", "unit": "µmol/L/min"}, {"measurement": "β-glucuronidase (serum)", "setting": "[2]; 28 days after last dose", "value": "3.93 ± 1.2", "unit": "µmol/L/min"}, {"measurement": "IL-1 (serum)", "setting": "[3]; 2 h and 30 min after last dose", "value": "0.533 ± 0.15", "unit": "pg/mL"}, {"measurement": "IL-1 (serum)", "setting": "[3]; 24 hours after last dose", "value": "1.07 ± 0.19", "unit": "pg/mL"}, {"measurement": "IL-1 (serum)", "setting": "[3]; 28 days after last dose", "value": "0.29 ± 0.20", "unit": "pg/mL"}, {"measurement": "IL-6 (serum)", "setting": "[4]; 2 h and 30 min after last dose", "value": "2.7 ± 1.49", "unit": "pg/mL"}, {"measurement": "IL-6 (serum)", "setting": "[4]; 24 hours after last dose", "value": "2.5 ± 1.48", "unit": "pg/mL"}, {"measurement": "IL-6 (serum)", "setting": "[4]; 28 days after last dose", "value": "1.15 ± 0.61", "unit": "pg/mL"}, {"measurement": "GRO-α (serum)", "setting": "[5]; 2 h and 30 min after last dose", "value": "109.6 ± 30.35", "unit": "pg/mL"}, {"measurement": "GRO-α (serum)", "setting": "[5]; 24 hours after last dose", "value": "107.9 ± 27.83", "unit": "pg/mL"}, {"measurement": "GRO-α (serum)", "setting": "[5]; 28 days after last dose", "value": "90.4 ± 22.32", "unit": "pg/mL"}, {"measurement": "OXIDATIVE BURST (PMN) fMLP-luminol", "setting": "[6]; 2 h and 30 min after last dose", "value": "14774 ± 1175", "unit": "A.U."}, {"measurement": "OXIDATIVE BURST (PMN) fMLP-luminol", "setting": "[6]; 24 hours after last dose", "value": "5053 ± 3804", "unit": "A.U."}, {"measurement": "OXIDATIVE BURST (PMN) fMLP-luminol", "setting": "[6]; 28 days after last dose", "value": "9879 ± 13880", "unit": "A.U."}, {"measurement": "OXIDATIVE BURST (PMN) fMLP-cytochrom c", "setting": "[7]; 2 h and 30 min after last dose", "value": "0,007 ± 0.015 ΔA"}, {"measurement": "OXIDATIVE BURST (PMN) fMLP-cytochrom c", "setting": "[7]; 24 hours after last dose", "value": "−0,018 ± 0.010 ΔA"}, {"measurement": "OXIDATIVE BURST (PMN) fMLP-cytochrom c", "setting": "[7]; 28 days after last dose", "value": "−0,0011 ± 0,0010 ΔA"}, {"measurement": "GLUTATHION PEROXIDASE (PMN)", "setting": "[8]; 2 h and 30 min after last dose", "value": "5.3 ± 2.9", "unit": "mU/10^6PMN"}, {"measurement": "GLUTATHION PEROXIDASE (PMN)", "setting": "[8]; 24 hours after last dose", "value": "1.6 ± 1.3", "unit": "mU/10^6PMN"}, {"measurement": "GLUTATHION PEROXIDASE (PMN)", "setting": "[8]; 28 days after last dose", "value": "8.0 ± 5.2", "unit": "mU/10^6PMN"}]}
